From patent US20130261130A1, “NEUROTRYPSIN INHIBITORS” (priority 2010, published 2013)
pIC50: −log10 of the molar value. Counter-ions that a name gives are not always drawn.

Columns and labels:
[1] = test system: C-terminal agrin fragment (CAF); assay: Analysis of serum CAF levels by western blotting; type: in vivo, C57/BL6 mice
Procedure: (§1) Adult (P50) C57/BL6 mice from Charles River were used for the experiments. All animal experiments are performed in accordance with international guidelines for proper conduct of animal experiment under jurisdiction of the Swiss law (Permit number ZH-18/2008). For every mouse in the experiment the well-being during the interventions is documented in a score sheet.
(§2) Example 119, mono-lysine salt, was prepared for the dosing as suspension in 20% DMSO, 80% PBS with a final concentration of 2.5 mg/ml active compound (corresponding to 3.13 mg/ml of the lysine salt). First, compound of Example 119, mono-lysine salt, was dissolved in DMSO at a concentration of 15.7 mg/ml. Then sterile PBS was added to get a final concentration of 3.13 mg/ml and the suspension was thoroughly vortexed. The suspension was kept at room temperature in the dark until used.
(§3) 5 adult mice were treated with 10 ml/kg of a 3.13 mg/ml suspension of Example 119, mono-lysine salt. This corresponds to a dose of 25 mg/kg active ingredient. As vehicle control 5 mice were treated with 10 ml/kg of 20% DMSO in PBS. Each mouse received three intraperitoneal injections. Between dose 1 and dose 2 there were 8 h, between dose 2 and dose 3 16 h. 5 h after the last injection the mice were euthanatized with CO2.
Before the first injection the mice were weighted and ˜100 μl of blood was collected from the lateral tail vein. Serum was prepared with centrifugation of blood samples in Microvette 500 Z-Gel tubes (10'000 g, 20° C., 5 min). Supernatant was transferred to an Eppendorf reaction tube and centrifuged again (21'000 g, 20° C., 5 min). Supernatant was transferred to screw top reaction tubes and the serum was stored at −20° C. until analysis. […]
After staining for CAF the membrane was washed thoroughly and reused for a staining for endogenous mouse antibodies that served as loading control. […] After imaging with a Stella imaging system (Raytest) the intensity of the CAF bands was measured with AIDA picture analysis software (Raytest) and normalized to the loading levels determined from mouse antibody light chains. […]

[2] = Effect of compound on body weight in mice; type: in vivo, C57/BL6 mice; conditions: 25 mg/kg active ingredient, three intraperitoneal injections
Procedure: as §1
The mice are housed under optimal hygienic conditions (OHB) with controlled air-conditioning and lighting (temperature: 20-24° C., humidity: 55-65%, day/night cycle: 12 h/12 h, lights on 7 a.m.). Individually ventilated cages of type II, L (530 cm^2 floor space) with standard litter are used. A maximum of 6 mice is kept in each cage. Mice are fed with standard rodent chow (Extrudat, KLIBA NAFAG) ad libitum and have free access to drinking water. Animal colony is managed and maintained at BioSupport, Schlieren.
as §2, §3
Before the first injection the mice were weighted and ˜100 μl of blood was collected from the lateral tail vein. Serum was prepared with centrifugation of blood samples in Microvette 500 Z-Gel tubes (10'000 g, 20° C., 5 min). […]

human neurotrypsin = target: T1, human neurotrypsin (Homo sapiens, UniProt P56730); assay: Determination of IC50 for human neurotrypsin; type: biochemical; conditions: human neurotrypsin; method of WO 2006/1103261; read-out: Neurotrypsin IC50
T1 sequence (P56730 21-875): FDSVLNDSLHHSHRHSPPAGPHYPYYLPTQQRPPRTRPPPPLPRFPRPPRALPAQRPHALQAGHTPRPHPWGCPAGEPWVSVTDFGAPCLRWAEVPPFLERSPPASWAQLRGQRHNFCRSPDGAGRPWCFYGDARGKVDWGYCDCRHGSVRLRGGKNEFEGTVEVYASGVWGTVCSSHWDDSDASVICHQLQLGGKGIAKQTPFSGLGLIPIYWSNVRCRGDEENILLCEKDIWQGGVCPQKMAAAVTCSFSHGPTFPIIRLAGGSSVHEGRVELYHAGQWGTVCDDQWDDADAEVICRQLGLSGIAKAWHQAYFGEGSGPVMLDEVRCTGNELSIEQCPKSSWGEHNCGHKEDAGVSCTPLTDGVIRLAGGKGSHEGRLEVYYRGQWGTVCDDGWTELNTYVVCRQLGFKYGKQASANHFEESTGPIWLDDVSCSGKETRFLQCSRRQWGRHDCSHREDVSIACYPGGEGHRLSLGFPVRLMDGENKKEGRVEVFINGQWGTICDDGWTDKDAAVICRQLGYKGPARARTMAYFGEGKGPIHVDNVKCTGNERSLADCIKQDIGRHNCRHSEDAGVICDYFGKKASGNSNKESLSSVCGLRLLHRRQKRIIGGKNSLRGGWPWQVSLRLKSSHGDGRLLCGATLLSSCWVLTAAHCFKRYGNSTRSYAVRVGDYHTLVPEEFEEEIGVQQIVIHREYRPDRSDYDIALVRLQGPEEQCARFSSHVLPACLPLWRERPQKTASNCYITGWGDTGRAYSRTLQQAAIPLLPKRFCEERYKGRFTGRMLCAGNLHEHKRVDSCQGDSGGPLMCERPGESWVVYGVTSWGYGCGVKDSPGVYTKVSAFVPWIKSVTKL
Procedure: Assessment of the potency of compounds of examples 1-311 in inhibiting the enzymatic activity of human neurotrypsin was performed according to the method described in patent application WO 2006/1103261

| SMILES | pIC50 (human neurotrypsin) | other results |
| --- | --- | --- |
| O=C(Nc1ccc(Cl)cc1)c1ccc(NC(=O)c2ccc(-c3nc4cc(Cl)c(Cl)cc4[nH]3)cc2)c(C(=O)O)c1 [Example 119, mono-lysine salt] | – | CAF levels Average (AU) ([1]; pooled mouse serum, western blot, post-treatment, 25 mg/kg i.p. x3, normalized to loading control, KO background subtracted): 0.38 AU; CAF levels Average (% of vehicle) ([1]; pooled mouse serum, western blot, post-treatment, 25 mg/kg i.p. x3, normalized to the vehicle level): 56.15 % of vehicle; CAF levels ([1]; serum, pooled samples, mice, 25 mg/kg active ingredient, three intraperitoneal injections, 5 h after last injection, mean ± standard deviation): 56.2%±29.0 % of vehicle control; increase in weight loss compared to the vehicle control ([2]; adult mice): does not produce any increase in weight loss compared to the vehicle control; Weight loss ([2]; adult mice, post-treatment/pre-treatment weight): < 10%; Average weight loss (% of T = 0 weigth) ([2]; mice, weighed before first injection and 5 h after last, n=5): 5.52 % of T = 0 weigth |
| O=C(O)c1ccc(NC2CCCc3ccccc32)cc1NC(=O)c1sc2ccccc2c1Cl (stereo not drawn) [Example 291] | 5.40 | – |
| O=C(O)c1ccc(-c2cn(Cc3ccccc3)nn2)cc1NC(=O)c1sc2ccccc2c1Cl [Example 258] | 5.03 | – |
| O=C(Nc1ccc(Cl)cc1)c1ccc(C(=O)O)c(NC(=O)c2cc(Br)cc(Br)c2O)c1 [Example 143, 4-(4-Chlorophenyl-carbamoyl)-2-(3,5-dibromo-2-hydroxybenzamido)benzoic acid] | 5.41 | – |
| O=C(Nc1ccccc1O)c1ccc(C(=O)O)c(NC(=O)c2sc3ccccc3c2Cl)c1 [Example 82] | 4.75 | – |
| O=C(Nc1ccc(Cl)cc1)c1ccc(NC(=O)c2ccc(-c3nc4ccccc4[nH]3)cc2)c(C(=O)O)c1 [Example 36, 2-(4-(1H-Benzo[d]imidazol-2-yl)benzamido)-5-(4-chloro-phenylcarbamoyl)benzoic acid] | 5.46 | – |
| COc1ccc(-c2ccc(C(=O)O)c(NC(=O)c3sc4ccccc4c3Cl)c2)cc1 [Example 249] | 5.55 | – |
| O=C(O)c1ccc(NS(=O)(=O)c2ccc(Cl)cc2)cc1NC(=O)c1sc2ccccc2c1Cl [Example 278] | 4.71 | – |
| CC(C)CN(CC(C)C)C(=O)c1ccc(NC(=O)c2ccc(-c3nc4cc(Cl)c(Cl)cc4n3C)cc2)c(C(=O)O)c1 [Example 46, 2-(4-(5,6-Dichloro-1-methyl-1H-benzo[d]imidazol-2-yl)benzamido)-5-(diisobutyl-carbamoyl)benzoic acid] | 5.47 | – |
| O=C(Nc1ccc(Cl)cc1)c1cc(NC(=O)c2sc3ccccc3c2Cl)c(C(=O)O)cc1O [Example 303] | 5.26 | – |
| O=C(O)c1ccc(C(=O)N2CCC(Oc3ccccc3)C2)cc1NC(=O)c1sc2ccccc2c1Cl (stereo not drawn) [Example 101] | 5.05 | – |
| O=C(O)c1cc(-c2cn(-c3ccc(Cl)cc3)nn2)ccc1NC(=O)c1sc2ccccc2c1Cl [Example 263] | 5.40 | – |
| O=C(Nc1ccc(Cl)cc1)c1ccc(NC(=O)c2ccc(-c3nc4cc(Cl)ccc4[nH]3)cc2)c(C(=O)O)c1 [Example 37, 2-(4-(5-Chloro-1H-benzo[d]-imidazol-2-yl)benzamido)-5-(4-chlorophenylcarbamoyl)-benzoic acid] | 5.80 | – |
| CC(NC(=O)c1ccc(NC(=O)c2ccc(-c3ccc(Cl)cc3)s2)c(C(=O)O)c1)c1ccc(Cl)cc1 (stereo not drawn) [Example 110] | 5.47 | – |
| COc1ccc(CC2CCN(C(=O)c3ccc(NC(=O)c4sc5ccccc5c4Cl)c(C(=O)O)c3)CC2)cc1 [Example 117] | 5.54 | – |
| O=C(Nc1ccc(Cl)cc1)c1ccc(C(=O)O)c(NC(=O)c2sc3ccccc3c2Cl)c1 [Example 1, 2-(3-Chlorobenzo[b]thiophene-2-carboxamido)-4-(4-chlorophenylcarbamoyl)-benzoic acid] | 5.07 | – |
| O=C(O)c1ccc(CN2CC(c3ccc(Cl)cc3)OC2=O)cc1NC(=O)c1sc2ccccc2c1Cl (stereo not drawn) [Example 301] | 5.06 | – |
| O=C(O)c1ccc(C(=O)N2CCC(O)(c3ccc(Cl)cc3)CC2)cc1NC(=O)c1sc2ccccc2c1Cl [Example 99] | 5.16 | – |
| Cn1c(-c2ccc(C(=O)Nc3ccc(C(=O)Nc4ccc(Cl)cc4)cc3C(=O)O)cc2)nc2cc(Cl)c(Cl)cc21 [Example 135] | 6.05 | – |
| O=C(O)COc1cc(C(=O)O)c(NC(=O)c2sc3ccccc3c2Cl)cc1C(=O)Nc1ccc(Cl)cc1 [Example 304] | 5.60 | – |
| CCCCc1ccc(NC(=O)c2ccc(NC(=O)c3ccc(-c4nc5cc(Cl)c(Cl)cc5[nH]4)cc3)c(C(=O)O)c2)cc1 [Example 129] | 6.00 | – |
| O=C(Nc1ccc(Cl)cc1)c1ccc(NC(=O)c2[nH]c3ccc(Cl)cc3c2-c2ccccc2)c(C(=O)O)c1 [Example 134] | 5.72 | – |
